Test results published in PubChem BioAssay AID1259407 (Chemical Carcinogenesis Research Information System (CCRIS), 2018).
Active and inactive are the calls of the source. How the calls were made is not given here.

Test system: CCRIS mutagenicity, Ames/micronucleus/aberration tests
Assay: CCRIS mutagenicity studies
[1] = Test System: AMES SALMONELLA TYPHIMURIUM, Strain/Indicator: TA98, Metabolic Activation: NONE, Method: STANDARD PLATE
[2] = Test System: AMES SALMONELLA TYPHIMURIUM, Strain/Indicator: TA100, Metabolic Activation: NONE, Method: STANDARD PLATE

For `CC1(C)O[C@@H]1COc1c2occc2cc2ccc(=O)oc12`, the mutagenic call (Test System: AMES SALMONELLA TYPHIMURIUM, Strain/Indicator: TA92, Metabolic Activation: NONE, Method: SPOT TEST) was “inactive; negative”, the mutagenic call (Test System: AMES SALMONELLA TYPHIMURIUM, Strain/Indicator: TA92, Metabolic Activation: RAT, LIVER, S-9, AROCLOR 1254, Method: SPOT TEST) was “inactive; negative” and the mutagenic call (Test System: AMES SALMONELLA TYPHIMURIUM, Strain/Indicator: TA94, Metabolic Activation: NONE, Method: SPOT TEST) was “inactive; negative”. For the same molecule, the mutagenic call (Test System: AMES SALMONELLA TYPHIMURIUM, Strain/Indicator: TA94, Metabolic Activation: RAT, LIVER, S-9, AROCLOR 1254, Method: SPOT TEST) was “inactive; negative”, the mutagenic call (Test System: AMES SALMONELLA TYPHIMURIUM, Strain/Indicator: TA97, Metabolic Activation: NONE, Method: SPOT TEST) was “inactive; negative” and the mutagenic call (Test System: AMES SALMONELLA TYPHIMURIUM, Strain/Indicator: TA97, Metabolic Activation: RAT, LIVER, S-9, AROCLOR 1254, Method: SPOT TEST) was “inactive; negative”. The mutagenic call (Test System: AMES SALMONELLA TYPHIMURIUM, Strain/Indicator: TA98, Metabolic Activation: NONE, Method: SPOT TEST) was “inactive; negative”, the mutagenic call (Test System: AMES SALMONELLA TYPHIMURIUM, Strain/Indicator: TA98, Metabolic Activation: RAT, LIVER, S-9, AROCLOR 1254, Method: SPOT TEST) was “inactive; negative” and the mutagenic call (Test System: AMES SALMONELLA TYPHIMURIUM, Strain/Indicator: TA100, Metabolic Activation: NONE, Method: SPOT TEST) was “inactive; negative”. For the same molecule, the mutagenic call (Test System: AMES SALMONELLA TYPHIMURIUM, Strain/Indicator: TA100, Metabolic Activation: RAT, LIVER, S-9, AROCLOR 1254, Method: SPOT TEST) was “inactive; negative”, the mutagenic call (Test System: AMES SALMONELLA TYPHIMURIUM, Strain/Indicator: TA102, Metabolic Activation: NONE, Method: SPOT TEST) was “inactive; negative” and the mutagenic call (Test System: AMES SALMONELLA TYPHIMURIUM, Strain/Indicator: TA102, Metabolic Activation: RAT, LIVER, S-9, AROCLOR 1254, Method: SPOT TEST) was “inactive; negative”.
`NC(=O)c1cc[n+](COC[n+]2ccccc2/C=N/O)cc1` was tested, and the mutagenic call [1] was “inactive; negative”, the mutagenic call (Test System: AMES SALMONELLA TYPHIMURIUM, Strain/Indicator: TA98, Metabolic Activation: RAT, LIVER, S-9, Method: STANDARD PLATE) was “inactive; negative” and the mutagenic call [2] was “inactive; negative”. For the same molecule, the mutagenic call (Test System: AMES SALMONELLA TYPHIMURIUM, Strain/Indicator: TA100, Metabolic Activation: RAT, LIVER, S-9, Method: STANDARD PLATE) was “inactive; negative”, the mutagenic call (Test System: AMES SALMONELLA TYPHIMURIUM, Strain/Indicator: TA1535, Metabolic Activation: NONE, Method: STANDARD PLATE) was “inactive; negative” and the mutagenic call (Test System: AMES SALMONELLA TYPHIMURIUM, Strain/Indicator: TA1535, Metabolic Activation: RAT, LIVER, S-9, Method: STANDARD PLATE) was “inactive; negative”. For the same molecule, the mutagenic call (Test System: AMES SALMONELLA TYPHIMURIUM, Strain/Indicator: TA1537, Metabolic Activation: NONE, Method: STANDARD PLATE) was “inactive; negative”, the mutagenic call (Test System: AMES SALMONELLA TYPHIMURIUM, Strain/Indicator: TA1537, Metabolic Activation: RAT, LIVER, S-9, Method: STANDARD PLATE) was “inactive; negative” and the mutagenic call (Test System: AMES SALMONELLA TYPHIMURIUM, Strain/Indicator: TA1538, Metabolic Activation: NONE, Method: STANDARD PLATE) was “inactive; negative”. The mutagenic call (Test System: AMES SALMONELLA TYPHIMURIUM, Strain/Indicator: TA1538, Metabolic Activation: RAT, LIVER, S-9, Method: STANDARD PLATE) was “inactive; negative”, the mutagenic call (Test System: CHINESE HAMSTER OVARY, Strain/Indicator: CHO-K1-BH4 (HGPRT)/6-THIOGUANINE, Metabolic Activation: NONE) was “inactive; negative” and the mutagenic call (Test System: CHINESE HAMSTER OVARY, Strain/Indicator: CHO-K1-BH4 (HGPRT)/6-THIOGUANINE, Metabolic Activation: RAT, LIVER, S-9, Method: SUSPENSION/PLATE) was “inactive; negative”. The mutagenic call (Test System: MOUSE LYMPHOMA, Strain/Indicator: L5178Y (TK+/TK-), Metabolic Activation: NONE, Method: SUSPENSION/PLATE) was “inactive; negative”.
For `C=C(C)C(=O)OCC(C)C`, the mutagenic call (Test System: AMES SALMONELLA TYPHIMURIUM, Strain/Indicator: TA98, Metabolic Activation: HAMSTER, LIVER, S-9, AROCLOR 1254 (10%), Method: PREINCUBATION) was “inactive; negative”, the mutagenic call (Test System: AMES SALMONELLA TYPHIMURIUM, Strain/Indicator: TA98, Metabolic Activation: NONE, Method: PREINCUBATION) was “inactive; negative” and the mutagenic call (Test System: AMES SALMONELLA TYPHIMURIUM, Strain/Indicator: TA98, Metabolic Activation: RAT, LIVER, S-9, AROCLOR 1254 (10%), Method: PREINCUBATION) was “inactive; negative”. For the same molecule, the mutagenic call (Test System: AMES SALMONELLA TYPHIMURIUM, Strain/Indicator: TA100, Metabolic Activation: HAMSTER, LIVER, S-9, AROCLOR 1254 (10%), Method: PREINCUBATION) was “inactive; negative”, the mutagenic call (Test System: AMES SALMONELLA TYPHIMURIUM, Strain/Indicator: TA100, Metabolic Activation: NONE, Method: PREINCUBATION) was “inactive; negative” and the mutagenic call (Test System: AMES SALMONELLA TYPHIMURIUM, Strain/Indicator: TA100, Metabolic Activation: RAT, LIVER, S-9, AROCLOR 1254 (10%), Method: PREINCUBATION) was “inactive; negative”. For the same molecule, the mutagenic call (Test System: AMES SALMONELLA TYPHIMURIUM, Strain/Indicator: TA1535, Metabolic Activation: HAMSTER, LIVER, S-9, AROCLOR 1254 (10%), Method: PREINCUBATION) was “inactive; negative”, the mutagenic call (Test System: AMES SALMONELLA TYPHIMURIUM, Strain/Indicator: TA1535, Metabolic Activation: NONE, Method: PREINCUBATION) was “inactive; negative” and the mutagenic call (Test System: AMES SALMONELLA TYPHIMURIUM, Strain/Indicator: TA1535, Metabolic Activation: RAT, LIVER, S-9, AROCLOR 1254 (10%), Method: PREINCUBATION) was “inactive; negative”. For the same molecule, the mutagenic call (Test System: AMES SALMONELLA TYPHIMURIUM, Strain/Indicator: TA1537, Metabolic Activation: HAMSTER, LIVER, S-9, AROCLOR 1254 (10%), Method: PREINCUBATION) was “inactive; negative”, the mutagenic call (Test System: AMES SALMONELLA TYPHIMURIUM, Strain/Indicator: TA1537, Metabolic Activation: NONE, Method: PREINCUBATION) was “inactive; negative” and the mutagenic call (Test System: AMES SALMONELLA TYPHIMURIUM, Strain/Indicator: TA1537, Metabolic Activation: RAT, LIVER, S-9, AROCLOR 1254 (10%), Method: PREINCUBATION) was “inactive; negative”.
In the case of `COc1cc(O)c2c(=O)oc3cc(O)cc(C)c3c2c1`, the mutagenic call [1] is reported as “inactive; negative”, the mutagenic call (Test System: AMES SALMONELLA TYPHIMURIUM, Strain/Indicator: TA98, Metabolic Activation: RAT LIVER S-9, AROCLOR 1254, Method: STANDARD PLATE) is reported as “inactive; negative” and the mutagenic call (Test System: AMES SALMONELLA TYPHIMURIUM, Strain/Indicator: TA98, Metabolic Activation: RAT, LIVER, S-9, AROCLOR 1254, Method: STANDARD PLATE) is reported as “inactive; negative”. The mutagenic call [2] was “inactive; negative”, the mutagenic call (Test System: AMES SALMONELLA TYPHIMURIUM, Strain/Indicator: TA100, Metabolic Activation: RAT LIVER S-9, AROCLOR 1254, Method: STANDARD PLATE) was “inactive; negative” and the mutagenic call (Test System: AMES SALMONELLA TYPHIMURIUM, Strain/Indicator: TA100, Metabolic Activation: RAT, LIVER, S-9, AROCLOR 1254, Method: STANDARD PLATE) was “inactive; negative”. For the same molecule, the mutagenic call (Test System: Ames Salmonella typhimurium, Strain/Indicator: TA97, Metabolic Activation: None, Method: Standard plate) was “inactive; negative. nitrosation did not increase mutagenicity”, the mutagenic call (Test System: Ames Salmonella typhimurium, Strain/Indicator: TA97, Metabolic Activation: Rat, Liver, S-9, Aroclor 1254 (10%), Method: Standard plate) was “inactive; negative. nitrosation did not increase mutagenicity” and the mutagenic call (Test System: Ames Salmonella typhimurium, Strain/Indicator: TA102, Metabolic Activation: None, Method: Standard plate) was “inactive; negative. nitrosation did not increase mutagenicity”. The mutagenic call (Test System: Ames Salmonella typhimurium, Strain/Indicator: TA102, Metabolic Activation: Rat, Liver, S-9, Aroclor 1254 (10%), Method: Standard plate) was “inactive; negative. nitrosation did not increase mutagenicity”, the mutagenic call (Test System: Ames Salmonella typhimurium, Strain/Indicator: TA104, Metabolic Activation: None, Method: Standard plate) was “inactive; negative. nitrosation did not increase mutagenicity” and the mutagenic call (Test System: Ames Salmonella typhimurium, Strain/Indicator: TA104, Metabolic Activation: Rat, Liver, S-9, Aroclor 1254 (10%), Method: Standard plate) was “inactive; negative. nitrosation did not increase mutagenicity”. The mutagenic call (Test System: E. COLI, Strain/Indicator: ND-160, Metabolic Activation: NONE, Method: STANDARD PLATE) was “active; positive”.
